Assay results taken from patent publication EP2050458A1, “IL24 for inducing hyperproliferative or autoimmune cell death” (INSTITUT NATIONAL DE LA SANTE ET DE LA RECHERCHE MEDICALE …, priority 2007, dated 2009).
Where a SMILES comes first, the peptide text is derived from it. The star is where a group is joined. Cbz = O=C(OCc1ccccc1)*; CH2F = FC*

Legend:
Type in all cases: cell-based, human
CLL cells = test: CLL cell survival in culture (trypan blue cell count, cell cycle analysis); conditions: culture for > 30 min
Protocol: • Figure 1. rIL24 protects CLL B-cells from death in culture. • a) CLL cells (2x10^6/ml) were cultured in complete medium (•) or with 100 ng/ml rIL24 (▲) every 7 days and cells counted using trypan blue exclusion. % living cells was calculated in each sample (mean ± SD, n=8). b) Cell scatter, Apoptosis shown by Apo 2.7-PE staining, and cell cycle shown by PI staining from one representative sample (CLL 70) at day 21. M1: hypodiploid (apoptotic cells) M2: cells into G0/G1, M3: cells into S+G2+M, M4: hyperdiploid cells. • Figure 2. rIL24 inhibits thymidine incorporation in activated CLL cells. • a) IL24 was added to IL2-cultured cells as in figure 1, one day before (d-1) at the same time (d0) or one day after (d=1) IL2. b) IL24 was added to CLL cells cultured for 24 h with IL2, IL2+CD40-Ligand or anti-IgM+CD40-Ligand. Tymidine (0.5 mCi/ml) was added at day 3 for 15 h. […] Mean ± SD (n=8) of the M1 to M4 populations calculated as in (a) from CLL cells cultured with IL2 (hatched histogram) or IL2 then IL24 (white histogram). […] RNA was extracted at day 3, reverse-transcribed, amplified and analyzed by real-time PCR. […]

P-stat3 = test: Stat3 phosphorylation (Phospho-Y705 stat3) by western blot and immunostaining in CLL cells
Protocol: For pervanadate experiments, fresh CLL cells were preincubated or not with IL2 overnight, then incubated or not with pervanadate 25 µM during 5 min and stimulated or not with IL24 for 10 min and lysed as previously described. Blots were hybridyzed with anti phospho-Tyr 705-STAT3 (B-7) MAb (Tebu-bio), dehybridyzed and reblotted with anti STAT3 MAb (BD Transduction Laboratories).
Stat3 was strongly and stably phosphorylated in cells incubated overnight with IL2 as evidenced by hybridization with an anti Phospho-Y705 stat3 MAb. In contrast, phospho(P)-stat5 disappeared and total stat5 diminished in the cytosol of cells incubated overnight with IL2, presumably due to dimerization and translocation to the nucleus (Paukku et al. Cytokine Growth Factor Rev. 2004. 6:435-55).
Cells were therefore incubated or not for 5 min with […] pervanadate (PV), an inhibitor of protein tyrosine phosphatase activity (Heffetz and Bushkin H. J Biol Chem. 1990. 265:2896-902) and stimulated 10 min with IL24 on cells preincubated or not with IL2. Cytospin and western blot experiments were performed.
Troglitazone (TG) is an activator of protein-tyrosine phosphatase (PTP)-1B that reduced P-Y705-stat3 and promoted apoptosis in human primary gliomas (Akasaki et al. J Biol Chem. 2005. 281:6165-74). TG was therefore used to determine if it is able to stimulate p53 expression and apoptosis in CLL. […]

CLL B-cells = test: Cell cycle analysis by Propidium Iodide staining and FACS; conditions: inhibitor added with IL24 to cells cultured overnight with IL2 (IL2+IL24+inhibitor); vs 3.36 ± 1.3% without inhibitor
Protocol: For apoptosis studies, cells were stained either with the Apo 2.7-PE mAb (Beckman-Coulter, Villepinte, France) on ice for 15 min, washed and resuspended on 300 µl of PBS 1X supplemented with 0,1% BSA or with the Annexin V-FITC apoptosis detection kit (Becton Dickinson Biosciences, Le-Pont-de-Claix, France), 1x10^5 cells in 100 µl 1X binding buffer were stained with 5 µl of Annexin V-FITC and 5 µl Propidium Iodide (PI) in the dark for 15 min at room temperature (RT). 400 µl of 1X binding buffer was added before fluorescence-activated cell sorted (FACS) analysis. For cell cycle analysis 1x10^6 cells were washed with cold PBS1X and resuspended in 1ml EtOH 70% and kept on ice for at least 10 min. Cells were then centrifuged and the pellet resuspended in 1ml PBS 1X + RNAse (40 µg) Saint-Quentin Fallavier, France) + Propidium Iodide (18 µl) at room temperature. […]
Fluorescence was measured using a FACScan flow cytometer (BD Biosciences), and data analysis was performed using CellQuest software (BD Biosciences).
It was next determined whether the inhibition of thymidine incorporation by B-cells reflected cell cycle block and/or apoptosis. […] The respective percentages of hypodiploid (apoptotic) cells, and of cells in G0-G1, S and G2-M cell cycle phase, and finally of hyperdiploid cells were evaluated (M1 to M4 populations respectively in figure 3a). […]

Compound: pervanadate [PV]
- toxicity in culture (CLL cells): too toxic
- IL24-mediated inhibition of P-Stat3 (P-stat3; 5 min with 25 µM pervanadate, then 10 min IL24): antagonized

Compound: Cc1c(C)c2c(c(C)c1O)CCC(C)(COc1ccc(CC3SC(=O)NC3=O)cc1)O2 (centres unmarked) [TG, Troglitazone]
- total Stat3 expression (P-stat3; IL2-cultured CLL cells): no effect

Compound: Cc1ccc(C(=O)Cn2c3c(sc2=N)CCCC3)cc1 [Pft-a, Pifithrin]
- cells in S/G2/M (CLL B-cells): 6.44 ± 2.2%

Compound: COC(=O)C[C@H](NC(=O)[C@H](C)NC(=O)[C@@H](NC(=O)OCc1ccccc1)C(C)C)C(=O)CF [zvad, ZVAD-fmk] (Cbz-Val-Ala-Asp(OMe)-CH2F)
- cells in S/G2/M (CLL B-cells): 4.8 ± 1.77%
